Reference: patent publication US20220332774A1, “THERAPEUTIC MITOCHONDRIAL PEPTIDES” (priority 2019, published 2022)

Columns and labels:
[1] = system: 3T3-L1 Mouse Adipocytes; assay: Free fatty acid levels in cultured 3T3-L1 mouse adipocytes (isoproterenol stimulated); type: cell-based; settings: free fatty acid in medium; 5 μM peptide, 20-22 h pre-incubation then 3 h with 0.1 nM isoproterenol; isoproterenol alone = 100%
How it was run: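 3T3-L1 cells differentiated 12 days, insulin withdrawn, then peptides added on day 13 at 5 μM (0.1% DMSO) for 20-22 h at 37° C. After 3 h in assay buffer, medium free fatty acids read at 540 nm. Values expressed as percent of 0.1 nM isoproterenol-alone control.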

[2] = system: C2C12 Cells; assay: Glucose utilization in cultured C2C12 cells (myotubes); type: cell-based, mouse; settings: glucose concentration in medium relative to untreated cells; 5 μM peptide, 22 h
How it was run: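 Differentiated mouse myotubes (5 days in 2% horse serum) serum-starved 5 h, then treated 22 h at 37 °C with peptide at 5 μM final (0.1% DMSO) in low-glucose (1 g/L) DMEM. Glucose remaining in medium measured colorimetrically at 570 nm. Expressed as percent of untreated control, from 2–3 experiments in triplicate.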

[3] = system: H4-IIE Cells; assay: Glucose production in cultured H4-IIE cells; type: cell-based, rat; settings: glucose concentration in medium relative to untreated cells; 5 μM peptide, 24 h
How it was run: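 Rat H4-IIE hepatoma cells primed overnight in glucose-free DMEM with 2 mM pyruvate and 10 mM lactate, then treated 24 h at 37 °C with 5 μM peptide (0.1% DMSO; concentration assumes ~2000 Da). Medium glucose measured colorimetrically at 570 nm. Values are percent of untreated-cell glucose production; 0.5-1 nM insulin served as inhibitor reference.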

Row | Substance | Percent of Isoproterenol Control Activity [1] | Percent of Control Activity [2] | Percent of Control Activity [3]
1 | 140 (MTYSPEQSQLQYMHQQTMFNQ) [compound 140] | 100% | 91% | 97%
2 | 141 (MVEGWLLYLLVSMG) [compound 141] | 96% | 97% | 103%
3 | 142 (MVEVGYNVVRVV) [compound 142] | 97% | 95% | 103%
4 | 143 (MVGYLIPVWVLAIVCSDMLKPLS) [compound 143] | 107% | 98% | 111%
5 | 144 (MVIICFEVSLISHCWVVISRLLM) [compound 144] | 96% | 105% | 105%
6 | 145 (MVKPHLQNASI) [compound 145] | 94% | 103% | 102%
7 | 146 (MVLEFGLVGYFLLGGGSGWV) [compound 146] | 97% | 106% | 99%
8 | 147 (MVLFLLGMVG) [compound 147] | 99% | 107% | 98%
9 | 148 (MVLNLRVHRLRRTNLQLLHTSPIIP) [compound 148] | 103% | 103% | 109%
10 | 149 (MVLSSPPIFRMSCSLL) [compound 149] | 100% | 100% | 97%
11 | 150 (MVLWWFGGSG) [compound 150] | 94% | 102% | 87%
12 | 151 (MVNGRRTSVGV) [compound 151] | 81% | 95% | 90%
13 | 152 (MVRMLLVQWW) [compound 152] | 105% | 110% | 89%
14 | 153 (MVSMMTSMGM) [compound 153] | 93% | 104% | 91%
15 | 154 (MVSSGDWYSWCE) [compound 154] | 89% | 107% | 98%
16 | 155 (MVVCMVITFIWSCTKIFGA) [compound 155] | 97% | 107% | 95%
17 | 156 (MVVHWMSGVGLPWLWGVGV) [compound 156] | 97% | 85% | 106%
18 | 157 (MVVKGPLSEGGHPWGREGIWL) [compound 157] | 106% | 102% | 109%
19 | 158 (MWEEAGRMSEGCLG) [compound 158] | 96% | 106% | 127%
20 | 159 (MWGVSDMLVFLEV) [compound 159] | 100% | 102% | 111%
21 | 160 (MWLGVGLGWVG) [compound 160] | 102% | 94% | 102%
22 | 161 (MWLIEEYAMSDF) [compound 161] | 99% | 103% | 114%
23 | 162 (MWLVLWLWML) [compound 162] | 106% | 103% | 113%
24 | 163 (MWMPPTLPHIR) [compound 163] | 87% | 105% | 110%
25 | 164 (MWNDLLQCSEP) [compound 164] | 116% | 102% | 109%
26 | 165 (MWRVLGALWW) [compound 165] | 108% | 95% | 125%
27 | 166 (MWSHPSHHSTINITNKWLL) [compound 166] | 96% | 105% | 105%
